# Results published in US12661338B2, “Heterocyclic compounds as modulators of beta-catenin / TCF4 interaction” (AGENCY FOR SCIENCE, TECHNOLOGY AND RESEARCH, priority 2019, dated 2026).
# pEC50: −log10 of the molar value.
# Key:
# Format in all cases: cell-based
# CRC2413 = test: Viability of primary patient-derived colorectal cancer cell line
# β-cat-TCF4 interaction = biological target: T1, β-cat-TCF4 interaction (Homo sapiens, UniProt P35222, DEL45-45); test: Co-immunoprecipitation of β-cat and TCF4 in HCT116 cells; conditions: 18 hr
# T1 construct: endogenous in cells; host or cells: HCT116
# Protocol: HCT116 cells were treated for 18 hr with compounds at the indicated concentrations. Cells were lysed on ice in lysis buffer containing 20 mM HEPES, pH 7.5, 137 mM NaCl, 1.5 mM MgCl2, 1 mM EGTA, 1 mM dithiothreitol (DTT), 1% Triton X-100, 10% glycerol, cOmplete protease inhibitor cocktail (Roche cat. #11697498001), and 1 mM Na3VO4. Each sample of cleared protein lysate was incubated overnight at 4° C. with 4 μg anti-β-cat antibody (Sigma cat. #C7207) followed by 1 hr incubation with a 50 μL slurry of Dynabeads Protein G (Invitrogen cat. #10004D) at 4° C. The beads were then washed three times with lysis buffer at 4° C., and the bound protein was eluted by heating the beads with 30 μL (per sample) of SDS sample buffer at 95° C. for 7 min. protein was resolved by SDS-PAGE and blotted onto PVDF membrane (Millipore cat. #IPVH00010). Primary antibodies were incubated overnight at 4° C. and the blots were detected with either IRDye 800CW goat anti-rabbit antibody (LI-COR cat. #926-32211) or IRDye 680RD goat anti-mouse antibody (LI-COR cat. #926-68070) at 1:5000 dilution. Signals were visualized with the LI-COR Odyssey CLx imaging system and bands were quantified using LI-COR Image Studio data analysis software. […]
# CRC1414 = test: Viability of primary patient-derived colorectal cancer cell line
# T1 sequence (P35222 with tags, fused parts or gaps DEL45-45): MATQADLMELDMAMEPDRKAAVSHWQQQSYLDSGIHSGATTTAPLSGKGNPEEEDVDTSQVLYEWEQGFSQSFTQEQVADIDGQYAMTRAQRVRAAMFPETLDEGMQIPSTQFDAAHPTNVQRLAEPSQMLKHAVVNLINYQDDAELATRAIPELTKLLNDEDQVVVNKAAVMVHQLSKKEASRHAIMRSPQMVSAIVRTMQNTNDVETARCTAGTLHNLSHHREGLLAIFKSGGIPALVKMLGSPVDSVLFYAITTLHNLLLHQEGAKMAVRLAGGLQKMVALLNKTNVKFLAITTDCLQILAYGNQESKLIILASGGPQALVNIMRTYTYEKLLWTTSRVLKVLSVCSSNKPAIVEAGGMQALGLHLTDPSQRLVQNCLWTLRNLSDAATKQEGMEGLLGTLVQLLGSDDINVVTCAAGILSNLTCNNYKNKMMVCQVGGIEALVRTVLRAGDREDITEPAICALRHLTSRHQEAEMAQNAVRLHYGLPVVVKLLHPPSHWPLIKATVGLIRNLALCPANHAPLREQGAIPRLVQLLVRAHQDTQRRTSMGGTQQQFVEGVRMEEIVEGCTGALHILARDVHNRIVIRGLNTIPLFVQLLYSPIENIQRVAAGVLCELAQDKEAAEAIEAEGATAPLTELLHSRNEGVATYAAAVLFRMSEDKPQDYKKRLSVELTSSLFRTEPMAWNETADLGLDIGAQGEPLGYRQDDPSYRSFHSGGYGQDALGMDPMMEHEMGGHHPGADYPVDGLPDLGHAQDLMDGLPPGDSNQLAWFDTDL
compound,measurement,setting,value
CCc1ccc(OCc2nnc(SC3CCCC3=O)n2C(C)c2ccccc2)cc1 (stereo not drawn) [GB1874],pEC50,CRC2413,4.80
same,β-cat-TCF4 interaction (co-IP),β-cat-TCF4 interaction,reduce the β-cat-TCF4 interaction to the same extent as iCRT3
same,pEC50,CRC1414,4.38
